Assay results as given in patent publication US7608577B2, “Peptidyl ketones as inhibitors of DPIV” (OSI Pharmaceuticals, Inc., priority 2001, dated 2009).

Target: porcine DP II
Test: Inhibition of DPIV-like enzymes: dipeptidyl peptidase II
Assay type: biochemical
Conditions: inhibitor 1*10^−4 M-5*10^−8 M, pH7.6
Procedure: DP II (3.4.14.2) releases N-terminal dipeptides from oligopeptides if the N-terminus is not protonated (McDonald, J. K., Ellis, S. & Reilly, T. J., 1966, J. Biol. Chem., 241, 1494-1501). Pro and Ala in P1-position are preferred residues. The enzyme activity is described as DPIV-like activity, but DP II has an acidic pH-optimum. The enzyme used was purified from porcine kidney.
100 μl inhibitor in a concentration range of 1*10^−4 M-5*10^−8 M was admixed with 100 μl buffer solution (40 mM HEPES, pH7.6, 0.015% Brij, 1 mM DTT), 50 μl lysylalanylaminomethylcoumarine solution (5 mM) and 20 μl porcine DP II (250fold diluted in buffer solution). Fluorescence measurement was performed at 30° C. and λexcitation=380 nm, λemission=465 nm for 25 min using a plate reader (HTS7000plus, Applied Biosystems, Weiterstadt, Germany). The Ki-values were calculated using Graphit 4.0.15 (Erithacus Software, Ltd., UK).

inhibition of DP II: No inhibition
SMILES: Br.CC(C)[C@H](NC(=O)[C@H](C)N)C(=O)N1CCC[C@H]1C(=O)COC(=O)c1ccccc1 [H-Ala-Val-Pro-CO—CH2O—CO—Ph*HBr, 2-[(Benzoyloxy-methyl)carbonyl]-1-N-[{(L)-Alanyl}-(L)-Valinyl]-(2S)-pyrrolidine hydrobromide]
